According to the CheMixHub viscosity set:
± gives the uncertainty stated by the source.

Assay: xn = mol fraction of the nth substance listed

CC(C)CC(=O)CC(C)C + CC(C)O
viscosity [mPa·s], 100 kPa
Conditions | x1 = 0.0818 | x1 = 0.1619 | x1 = 0.2451 | x1 = 0.3518 | x1 = 0.4413 | x1 = 0.5637 | x1 = 0.6549 | x1 = 0.7367 | x1 = 0.8528 | x1 = 0.9379
293.15 K | 1.93 ± 0.06 | 1.52 ± 0.05 | 1.19 ± 0.04 | 0.92 ± 0.03 | 0.76 ± 0.02 | 0.65 ± 0.02 | 0.63 ± 0.02 | 0.66 ± 0.02 | 0.77 ± 0.02 | 0.87 ± 0.03
298.15 K | 1.73 ± 0.05 | 1.41 ± 0.04 | 1.14 ± 0.04 | 0.88 ± 0.03 | 0.72 ± 0.02 | 0.62 ± 0.02 | 0.61 ± 0.02 | 0.64 ± 0.02 | 0.74 ± 0.02 | 0.83 ± 0.03
303.15 K | 1.51 ± 0.05 | 1.26 ± 0.04 | 1.05 ± 0.03 | 0.83 ± 0.03 | 0.7 ± 0.02 | 0.6 ± 0.02 | 0.59 ± 0.02 | 0.62 ± 0.02 | 0.72 ± 0.02 | 0.8 ± 0.03
308.15 K | 1.32 ± 0.04 | 1.12 ± 0.04 | 0.95 ± 0.03 | 0.77 ± 0.02 | 0.66 ± 0.02 | 0.58 ± 0.02 | 0.57 ± 0.02 | 0.6 ± 0.02 | 0.68 ± 0.02 | 0.76 ± 0.02
313.15 K | 1.18 ± 0.04 | 1.01 ± 0.03 | 0.87 ± 0.03 | 0.72 ± 0.02 | 0.63 ± 0.02 | 0.56 ± 0.02 | 0.55 ± 0.02 | 0.57 ± 0.02 | 0.64 ± 0.02 | 0.71 ± 0.02
318.15 K | 1.05 ± 0.03 | 0.92 ± 0.03 | 0.8 ± 0.03 | 0.67 ± 0.02 | 0.6 ± 0.02 | 0.54 ± 0.02 | 0.53 ± 0.02 | 0.55 ± 0.02 | 0.61 ± 0.02 | 0.67 ± 0.02
323.15 K | 0.93 ± 0.03 | 0.82 ± 0.03 | 0.72 ± 0.02 | 0.63 ± 0.02 | 0.57 ± 0.02 | 0.52 ± 0.02 | 0.51 ± 0.02 | 0.53 ± 0.02 | 0.58 ± 0.02 | 0.63 ± 0.02

CCCCCCO + CCCCO
Conditions | viscosity [mPa·s]
294.55 K, 100 kPa, x2 = 0.31 | 3.994

O=C1CCCCC1 + Cc1ccc(C)cc1
viscosity [mPa·s], 101.33 kPa
Conditions | x1 = 0.1013 | x1 = 0.2048 | x1 = 0.3016 | x1 = 0.4023 | x1 = 0.5186 | x1 = 0.6081 | x1 = 0.7034 | x1 = 0.7967 | x1 = 0.9005
298.15 K | 0.655 ± 0.005 | 0.702 ± 0.005 | 0.762 ± 0.005 | 0.834 ± 0.006 | 0.938 ± 0.006 | 1.04 ± 0.007 | 1.194 ± 0.008 | 1.35 ± 0.008 | 1.617 ± 0.01
303.15 K | 0.612 ± 0.004 | 0.657 ± 0.005 | 0.711 ± 0.005 | 0.777 ± 0.005 | 0.871 ± 0.006 | 0.965 ± 0.006 | 1.088 ± 0.007 | 1.237 ± 0.008 | 1.481 ± 0.009
308.15 K | 0.574 ± 0.004 | 0.618 ± 0.004 | 0.667 ± 0.005 | 0.728 ± 0.005 | 0.819 ± 0.005 | 0.897 ± 0.006 | 1.01 ± 0.007 | 1.144 ± 0.007 | 1.354 ± 0.008

CCOCC + Cc1ccccc1
viscosity [mPa·s], 101 kPa
Conditions | 293.15 K | 298.15 K | 303.15 K | 308.15 K
x2 = 0.21 | 0.3 ± 0.008 | 0.29 ± 0.008 | 0.281 ± 0.008 | 0.272 ± 0.007
x2 = 0.45 | 0.379 ± 0.01 | 0.36 ± 0.01 | 0.345 ± 0.009 | 0.331 ± 0.009
x2 = 0.71 | 0.468 ± 0.012 | 0.445 ± 0.012 | 0.419 ± 0.011 | 0.404 ± 0.011

CCOCC + ClCCl
298.15 K, 101 kPa
Conditions | viscosity [mPa·s]
x1 = 0.113 | 0.4351 ± 0.0063
x1 = 0.2227 | 0.4106 ± 0.006
x1 = 0.3294 | 0.3839 ± 0.0058
x1 = 0.4331 | 0.3585 ± 0.0055
x1 = 0.5341 | 0.3342 ± 0.0053
x1 = 0.6322 | 0.3106 ± 0.005
x1 = 0.7278 | 0.289 ± 0.0048
x1 = 0.8209 | 0.2687 ± 0.0046
x1 = 0.9116 | 0.2496 ± 0.0044

CC(=O)CC(C)C + CS(C)=O
303.15 K, 101 kPa
Conditions | viscosity [mPa·s]
x2 = 0.1332 | 0.6376 ± 0.19
x2 = 0.257 | 0.7283 ± 0.2
x2 = 0.3722 | 0.8149 ± 0.21
x2 = 0.4798 | 0.9229 ± 0.22
x2 = 0.5804 | 1.042 ± 0.23
x2 = 0.6748 | 1.16 ± 0.24
x2 = 0.7635 | 1.306 ± 0.26
